From the METLIN SMRT retention time set (Domingo-Almenara et al. 2019) come the findings set out here.

Each structure is given as a SMILES string.

The data set in a line: gradient 5% acetonitrile 3 min, to 50% in 2 min, to 85% in 15 min, held 3 min, 100 µL/min. Particulars: column: Zorbax Extend-C18 2.1 x 50 mm; eluents: water / acetonitrile, 0.1% formic acid. The method, boiled down:
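Retention time was recorded from adduct peaks, which were picked computationally and each inspected manually. Pure standards ran in mixtures of ~100 molecules on HPLC coupled to a quadrupole time-of-flight mass spectrometer, in positive and negative ionization mode, through a Zorbax Extend-C18 column (2.1 × 50 mm, 1.8 μm) at 100 μL/min. Eluents were water and acetonitrile, each with 0.1% formic acid.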
Compound `COc1ccc(C(C)NC(=O)c2sc3ncccc3c2-n2cccc2)cc1OC` (stereo not given) gave an RP-LC retention time of 929 s. In the case of `C=CCNC(=O)C1CCN(S(=O)(=O)c2cc(Cl)ccc2OCC)CC1` it was 767 s; in that of `Cc1ccc(NC(=O)c2cnn3c2CCCC3)c(C)c1`, 762 s.

The compound `CCOC(=O)c1cnc2c(C)cc(C)cc2c1NCCCN(C)C` showed an RP-LC retention time of 565 s. Next, `O=C(c1ccoc1)N1CCCCC1c1nncn1Cc1ccccc1` (stereo not given): 689 s; `COc1cccc(-n2cc(C(=O)OCc3cc(=O)n4ccccc4n3)c3ccccc3c2=O)c1`: 866 s; `CNC(=O)c1cc(NC(=O)C2CCC2)cc2nc(C)ccc12`: 558 s.

For the compound `CCN(CC)c1cc(CNC(=O)Nc2cc(Cl)ccc2OC)ccn1`, the RP-LC retention time was 690 s. Next, `COc1ccc(-c2nnc(Cc3nc(-c4ccc(Cl)cc4)no3)o2)cc1OC`: 990 s.

On to `CCn1ccc2c(cc(C(=O)Nc3ccc(F)cc3Cl)n2C)c1=O`, for which the RP-LC retention time was 776 s. Next, `COc1ccc(Cl)cc1NC(=O)Cc1csc2nc(-c3ccccc3)cn12`: 902 s. As for `CCC1Oc2ccc(S(=O)(=O)N3CCC(C(=O)NCc4ccc(OC)cc4)CC3)cc2NC1=O` (stereo not given), the RP-LC retention time came to 839 s. In the case of `CN(C)CCNC(=O)C1CCc2sc(C(=O)N3CCCC3)cc2C1` (stereo not given) it was 660 s. `CC(C)(C)NC(=O)C1CCN(S(C)(=O)=O)c2cc(Cl)ccc2O1` (stereo not given) yielded an RP-LC retention time of 898 s.

Regarding `O=C(CSc1nnc(-c2ccco2)o1)N1CCCc2ccccc21`, the RP-LC retention time was found to be 887 s. In the case of `COc1ccc(C)cc1NC(=O)c1cn2c(n1)CSCC2` it was 841 s. The compound `O=C(C1CCC1)N1CCC(Cc2nc(C3CC3)n[nH]2)CC1` showed an RP-LC retention time of 598 s. Next, `CCc1ccc(C2=C(C)C(N3CCC(NC(=O)CCC(C)C)CC3)=NS2(=O)=O)cc1`: 935 s. Next, `O=C(Nc1ccc(F)cc1F)N1CCC(N2CCN(Cc3ccc(F)cc3)C2=O)CC1`: 802 s; `COc1ccc(-c2noc(C3CCCN3C(=O)c3cc(Cl)ccc3OC)n2)cc1` (stereo not given): 1020 s. Next, `Cn1c(=O)c(=O)n(C)c2cc(N3CCCCC3)c(NC(=O)CN3CCCC3)cc21`: 599 s; `O=C(NCc1ccc2c(c1)OCO2)c1nn(-c2ccccc2)c2ccccc2c1=O`: 831 s; `O=C(Cn1cccc(-c2nc(-c3ccc(F)cc3)no2)c1=O)Nc1ccc(Br)cc1`: 992 s. Compound `Clc1ccccc1-c1nc(-c2ccc(-n3ccnc3)nc2)no1` displayed an RP-LC retention time of 749 s. Next, `CC(C)Cn1c(=O)c(C(=O)NC2CCN(Cc3ccccc3)CC2)nc2cccnc21`: 670 s; `Fc1ccc(C(c2nnc(-c3ccccc3Cl)o2)N2CCN(c3ccccn3)CC2)cc1` (stereo not given): 774 s.

On to `COC(=O)c1ccc(CSc2nnc(NC(=O)c3nc4ccccc4s3)s2)o1`, for which the RP-LC retention time was 904 s. Next, `CCOC(=O)c1oc2ccc(S(=O)(=O)N3CCC(c4noc(C5CC5)n4)C3)cc2c1C` (stereo not given): 1000 s. In the case of `COc1ccc(-c2cn3c(CC(=O)Nc4ccccc4)csc3n2)cc1` it was 760 s.

The compound `O=C(NCc1cc(F)cc(F)c1)C1CCN(C(=O)c2ncn3c2COC(c2ccc(F)cc2)C3)CC1` (stereo not given) registered an RP-LC retention time of 802 s.

Compound `Cn1cccc1C(=O)N1CCN(c2cc(-c3ccc(Cl)cc3)[nH]n2)CC1` registered an RP-LC retention time of 832 s.

`COc1ccc(C2CC(=O)N(c3cccc(F)c3)C(=O)C2)cc1OC` yielded an RP-LC retention time of 839 s. Next, `Cn1c(-c2cccc(C(=O)N3CCN(c4ccccc4)CC3)c2)nc2cccnc21`: 736 s; `COc1ccc2c(c1)C(O)(CC(=O)c1ccc(-c3ccc(Cl)cc3)o1)C(=O)N2` (stereo not given): 797 s; `O=c1n(Cc2cc(F)cc(F)c2)nc2c(S(=O)(=O)N3CCCCC3)cccn12`: 903 s. In the case of `O=C(NC1CCCC1)c1cc(N2CCCC2)n2nccc2n1` it was 908 s; in that of `Cc1ccccc1-c1nnc(CSc2nnc(NC(=O)c3cccs3)s2)o1`, 908 s. `CN(CCc1noc(-c2ccc(Cl)cc2)n1)C(=O)Nc1ccccc1F`: the RP-LC retention time was determined as 952 s. In the case of `COc1ccc(C(=O)Nc2cccn3nc(C4CCC4)nc23)cc1` it was 905 s; in that of `CC1CCCN(CC2CCN(S(=O)(=O)Cc3ccccc3F)CC2)C1` (stereo not given), 650 s. Next, `O=C(NCC1CCCO1)c1ncoc1-c1ccccc1C(=O)N1CCCCC1` (stereo not given): 692 s; `Cc1cc(C)cc(NC(=O)Cn2c(-c3cnccn3)nc(C)c(C)c2=O)c1`: 774 s.

In turn, `COC(=O)c1ccccc1NC(=O)CCCn1cnc(-c2ccccc2)cc1=O` yielded an RP-LC retention time of 811 s.

For `CCCC(=O)Nc1ccc2c(c1)CN(C(=O)c1c(F)cccc1Cl)C(C(=O)N(C)C)C2` (stereo not given), the RP-LC retention time is 727 s. In the case of `Cn1ccc2ccn(CC(=O)Nc3ccc(Br)cc3)c(=O)c21`, the RP-LC retention time was 795 s. Next, `C=CCN(C)C(=O)c1cnn2c3c(cnc12)CCCCCC3`: 827 s; `Cc1cc(F)ccc1NC(=O)C(C)C1CCN(C(=O)Nc2ccc(Cl)cc2)CC1` (stereo not given): 974 s; `COc1ccc(C(=O)c2cccc(N)c2)cc1OC`: 630 s. In the case of `CCCn1nnc2cc(-c3noc(C4CC(=O)N(c5ccc(C)cc5)C4)n3)ccc21` (stereo not given), the RP-LC retention time was determined as 964 s. In the case of `Cc1ccc(F)cc1S(=O)(=O)Nc1cccn2c(C3CCC3)nnc12` it was 817 s; in that of `Cc1ccc(CNC(=O)N2CCC(OC3CCN(Cc4ccccc4)CC3)CC2)cc1`, 681 s. Next, `CCOC1CCN(C(=O)NC(C)(C)C)CC1`: 700 s; `O=C(c1cnc2sc3c(n2c1=O)CCC3)N1CCN(c2ncccn2)CC1`: 658 s; `Cc1ccccc1NC(=O)C1CCCN(S(=O)(=O)c2cn(C(C)C)cn2)C1` (stereo not given): 726 s. In the case of `CN(C)C(=O)c1ccc2c(c1)nc(CN(C)C(=O)Nc1cccc(Br)c1)n2C` it was 642 s; in that of `COc1ccc(-c2cc3n(n2)CCCN(C(=O)NCc2ccccc2)C3)cc1OC`, 929 s; in that of `CCOC(=O)c1noc2nc(C)nc(N3CCN(Cc4ccccc4)CC3)c12`, 616 s. The compound `CCc1nc(-c2csc(S(=O)(=O)N3CCC(C(=O)Nc4ccc(F)cc4Cl)CC3)c2)no1` yielded an RP-LC retention time of 1040 s. Next, `COc1ccc(CCNCc2ccc3c(c2)n(C)c(=O)n3C)cc1OC`: 587 s.

The compound `COc1ccc(-c2oc3ccc(OC)cc3c2C(=O)NCCN2CCOCC2)cc1` gave an RP-LC retention time of 591 s.
